{"source": "patent US20220387457A1", "about": "(Qlaris Bio, Inc., priority 2020, published 2022)", "key": {"[1]": {"system": "human alkaline phosphatase (ALP)", "experiment": "Conversion of CKLP1 by human alkaline phosphatase, LC/MS-MS, pH 7.4", "assay_type": "biochemical", "conditions": "up to 2 hours", "protocol": "(§1) Conversion of CKLP1 (200 μM-5.0 mM) was examined by LC/MS-MS following incubation at pH 7.4 with either human alkaline phosphatase (ALP), acid phosphatase, or 5′-nucleotidase (2.01 nM-1.0 μM) for up to 2 hours."}, "[2]": {"system": "African green monkeys (IOP)", "experiment": "Effect of CKLP1 on IOP in African green monkeys", "assay_type": "in vivo, African green monkey", "protocol": "To further validate the IOP lowering effects of CKLP1 in large animal models, one eye of five African green monkeys was treated with topical ocular administration of 10 mM CKLP1, while the contralateral eye received vehicle (PBS). Baseline IOP in control and treated eyes were 20.1±1.8 mmHg and 21.9±2.5 mmHg, respectively.\nFor treatment days, 10 mM CKLP1 (dissolved in PBS) was added to one eye of each monkey in a 50 μl topical ocular administration, once daily, for 7 consecutive days, while the contralateral eye received a 50 μl ocular administration of vehicle (PBS)."}, "hound dogs": {"system": "hound dogs", "experiment": "Histology, blood chemistry and tolerability after bilateral topical CKLP1 in hound dogs", "source_text": "To evaluate local and systemic side effects of bilateral topical administration of CKLP1 to the eyes, additional tissue samples were harvested for histological examination. Tissues collected and fixed during necropsy were processed into paraffin blocks, sectioned, and stained with hematoxylin and eosin."}, "beagle dogs": {"system": "beagle dogs", "experiment": "Safety findings, 28-day topical ophthalmic dosing in beagle dogs", "assay_type": "in vivo, beagle dog", "protocol": "In the study, dogs (3 males and 3 females) received bilateral daily topical administration of 40 μL/eye of 2.0%, 4.0%, or 8.0% as measured in mg/mL (equivalent to 0.8, 1.6, or 3.2 mg CKLP1 per eye) of CKLP1 in phosphate buffered saline. Based on an average male dog weight of 7.9 kg at the start of the study, these doses were equivalent to 0.20 mg/kg, 0.41 mg/kg, or 0.81 mg/kg and based on an average female dog weight of 6.0 kg at the start of the study, these doses were equivalent to 0.27 mg/kg, 0.53 mg/kg, or 1.07 mg/kg. Blood was collected for toxicokinetic analysis pre-dose and at 1, 2, 4, 8, 12, and 24 hours post dosing on days 1 and 28. In addition, 2 animals of each gender were allowed 336 hours (14 days) of recovery time following the final dose, at which point final blood samples were obtained."}, "5′-nucleotidase": {"system": "5′-nucleotidase", "experiment": "Conversion of CKLP1 by 5′-nucleotidase, LC/MS-MS, pH 7.4", "assay_type": "biochemical, human", "conditions": "up to 2 hours", "protocol": "as §1"}, "rats": {"system": "rats", "experiment": "28-day intravenous administration of CKLP1 in rats", "assay_type": "in vivo, rat", "text": "Three groups of rats were intravenously administered different doses of CKLP1. The study was 28 days long with a 14-day recovery period."}, "[3]": {"target": "T1, placenta-derived human alkaline phosphatase (Homo sapiens, UniProt P05187)", "T1 construct": "varying concentrations of placenta-derived human alkaline phosphatase; from tissue; host or cells: human placenta", "T1 sequence (P05187 23-506)": "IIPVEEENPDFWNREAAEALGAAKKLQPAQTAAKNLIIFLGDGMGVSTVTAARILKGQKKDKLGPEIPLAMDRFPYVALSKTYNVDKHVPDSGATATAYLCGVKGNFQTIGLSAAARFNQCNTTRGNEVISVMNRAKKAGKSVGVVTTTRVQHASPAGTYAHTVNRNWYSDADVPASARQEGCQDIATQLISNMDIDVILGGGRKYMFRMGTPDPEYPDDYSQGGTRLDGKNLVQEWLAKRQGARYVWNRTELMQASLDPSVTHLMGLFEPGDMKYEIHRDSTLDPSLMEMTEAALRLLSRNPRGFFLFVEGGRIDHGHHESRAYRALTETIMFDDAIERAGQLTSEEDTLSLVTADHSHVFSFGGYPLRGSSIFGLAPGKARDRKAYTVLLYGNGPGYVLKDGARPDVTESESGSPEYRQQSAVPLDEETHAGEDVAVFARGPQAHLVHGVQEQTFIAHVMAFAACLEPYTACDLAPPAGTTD", "experiment": "Dose- and time-dependent conversion of CKLP1 to levcromakalim by placenta-derived human alkaline phosphatase, pH 10", "assay_type": "biochemical", "protocol": "To activate CKLP1, the phosphate is hydrolyzed from phosphatases to produce leveromakalim, the active moiety that can open (activate) ATP-sensitive potassium channels.\nIn the first experiment, a fixed concentration of CKLP1 solution was incubated with varying concentrations of placenta-derived human alkaline phosphatase. To accomplish this, placenta-derived human alkaline phosphatase (0.0002 U) in a 100-μL volume was added to each of thirteen 1.5-mL tubes. To each tube, CKLP1 was then added at a fixed concentration [10 mM (0.4%)]. Tubes were inverted twice and incubated in a water bath at 37° C. At each of 13 different time points (0, 1, 2.5, 5, 15, and 30 minutes and at 1, 2, 4, 8, 24, 48, and 72 hours), a single tube was removed, and the reaction was stopped by the addition of 2 volumes (200 μL) of acetonitrile. Samples were stored at −80° C. The experiment was repeated with 10 mM CKLP1 (0.4%) in the presence of placenta-derived human alkaline phosphatase at concentrations of 0.002 U, 0.02 U, and 0.2 U. All assays were performed at pH 10.\nIn a second experiment, a fixed concentration of placenta-derived human alkaline phosphatase was incubated with varying concentrations of CKLP1. To accomplish this, a fixed concentration of 0.02 U of placenta-derived human alkaline phosphatase in a 100-μL volume was added to each of thirteen 1.5-mL tubes. To each tube, CKLP1 was then added [0.01 mM (0.0004%)]. Tubes were inverted twice and incubated in a water bath at 37° C. At each of 13 different time points (0, 1, 2.5, 5, 15, and 30 minutes and at 1, 2, 4, 8, 24, 48, and 72 hours), a single tube was removed and the reaction was stopped by the addition of 2 volumes (200 μL) of acetonitrile. Samples were stored at −80° C. The experiment was repeated with the same concentration of placenta-derived human alkaline phosphatase (0.02 U) and various concentrations of CKLP1 [0.1 mM (0.004%), 1 mM (0.04%), 10 mM (0.4%), 20 mM (0.8%), and 40 mM (1.6%)]. All assays were performed at pH 10."}, "[4]": {"conditions": "10 mM CKLP1 topical once daily, 7 days"}}, "data": [{"smiles": "CC1(C)Oc2ccc(C#N)cc2[C@@H](N2CCCC2=O)[C@@H]1OP(=O)(O)O", "note": "[CKLP1]", "values": [{"measurement": "rate constant for catalytic conversion (kcat)", "setting": "[1]; CKLP1 200 μM-5.0 mM", "value": 0.25, "unit": "s⁻¹"}, {"measurement": "Km", "setting": "[1]; CKLP1 200 μM-5.0 mM, read-out: Michaelis constant (Km)", "value": 630, "unit": "µM"}, {"measurement": "conversion of CKLP1 to levcromakalim", "setting": "[1]; human ALP", "value": "converted"}, {"measurement": "IOP reduction compared to baseline", "setting": "[2]; [4]", "value": "3.8±1.8", "unit": "mmHg"}, {"measurement": "change in IOP", "setting": "[2]; [4]", "value": "16.7±6.7", "unit": "%"}, {"measurement": "IOP lowered by (summary)", "setting": "[2]; African green monkeys", "value": "approximately 17%"}, {"measurement": "overall tolerability, ocular or systemic toxicity", "setting": "hound dogs; bilateral eye treatment with CKLP1", "value": "well tolerated and did not result in any observed ocular or systemic toxicity"}, {"measurement": "histology of 40 different tissues", "setting": "hound dogs; bilateral topical 10 mM CKLP1, 12-13 days", "value": "none of the analyzed tissues showed any significant pathology"}, {"measurement": "blood chemistry", "setting": "hound dogs; bilateral topical 10 mM CKLP1, except albumin, slightly lower in treated and control", "value": "within normal range"}, {"measurement": "non-adverse ocular effects", "setting": "beagle dogs; 3.2 mg/eye/dose (8%)", "value": "slight to moderate redness (congestion)"}, {"measurement": "microscopic findings, lacrimal gland", "setting": "beagle dogs; 2 females at 3.2 mg/eye/dose (8%)", "value": "mild lacrimal gland acinar atrophy"}, {"measurement": "reversibility of ocular findings", "setting": "beagle dogs; 14-day recovery period", "value": "all ocular findings were fully recovered"}, {"measurement": "microscopic findings, corneal epithelium", "setting": "beagle dogs; males at ≥1.6 mg/eye/dose (4%) and 1 female at 3.2 mg/eye/dose (8%)", "value": "mild increased mitoses in the corneal epithelium"}, {"measurement": "no-observed-adverse-effect level (NOAEL)", "setting": "beagle dogs; topical, 28 days, % as measured in mg/mL", "value": 8.0, "unit": "%"}, {"measurement": "conversion of CKLP1 to levcromakalim", "setting": "5′-nucleotidase", "value": "not"}, {"measurement": "food consumption, body weight, body weight gains vs control", "setting": "rats; IV 0.15, 1.5, 15 mg/kg/day, 28 days", "value": "no difference"}, {"measurement": "Clinical Signs", "setting": "rats; IV CKLP1 0.15 mg/kg/day", "value": "Red skin forelimbs and hindlimbs; red pinnae; red"}, {"measurement": "Clinical Signs", "setting": "rats; IV CKLP1 1.5 mg/kg/day", "value": "Red skin forelimbs and hindlimbs; red skin"}, {"measurement": "Clinical Signs", "setting": "rats; IV CKLP1 15 mg/kg/day", "value": "Red skin forelimbs and hindlimbs; red skin"}, {"measurement": "peripheral vasodilation", "setting": "rats; following intravenous administration in rats", "value": "induces peripheral vasodilation"}, {"measurement": "dose with red skin forelimbs and hindlimbs, red pinnae, red scrotums", "setting": "rats; male and female rats, IV", "value": "≥ 0.15", "unit": "mg/kg/day"}, {"measurement": "dose with red skin forepaws", "setting": "rats; males and females, IV", "value": "≥ 1.5", "unit": "mg/kg/day"}, {"measurement": "eye color", "setting": "rats; males, 15 mg/kg", "value": "Abnormal eye color"}, {"measurement": "conversion rate of CKLP1 to levcromakalim at 24 hours", "setting": "[3]; ALP 0.02 U/100 μL, CKLP1 0.01 mM", "value": 26.9, "unit": "%"}, {"measurement": "conversion rate of CKLP1 to levcromakalim at 24 hours", "setting": "[3]; ALP 0.02 U/100 μL, CKLP1 0.1 mM", "value": 20.0, "unit": "%"}, {"measurement": "conversion rate of CKLP1 to levcromakalim at 24 hours", "setting": "[3]; ALP 0.02 U/100 μL, CKLP1 1 mM", "value": 5.2, "unit": "%"}, {"measurement": "conversion rate of CKLP1 to levcromakalim at 24 hours", "setting": "[3]; ALP 0.02 U/100 μL, CKLP1 10 mM", "value": 4.9, "unit": "%"}, {"measurement": "conversion rate of CKLP1 to levcromakalim at 24 hours", "setting": "[3]; ALP 0.02 U/100 μL, CKLP1 20 mM", "value": 3.2, "unit": "%"}, {"measurement": "conversion rate of CKLP1 to levcromakalim at 24 hours", "setting": "[3]; ALP 0.02 U/100 μL, CKLP1 40 mM", "value": 1.7, "unit": "%"}, {"measurement": "conversion rate of CKLP1 to levcromakalim at 24 hours", "setting": "[3]; CKLP1 10 mM, ALP 0.0002 U/100 μL", "value": 0.4, "unit": "%"}, {"measurement": "conversion rate of CKLP1 to levcromakalim at 24 hours", "setting": "[3]; CKLP1 10 mM, ALP 0.002 U/100 μL", "value": 1.3, "unit": "%"}, {"measurement": "conversion rate of CKLP1 to levcromakalim at 24 hours", "setting": "[3]; CKLP1 10 mM, ALP 0.02 U/100 μL", "value": 4.8, "unit": "%"}, {"measurement": "conversion rate of CKLP1 to levcromakalim at 24 hours", "setting": "[3]; CKLP1 10 mM, ALP 0.2 U/100 μL", "value": 13.7, "unit": "%"}, {"measurement": "conversion of CKLP1 to levcromakalim, maximum", "setting": "[3]; CKLP1 fixed 10 mM (0.4%), ALP 0.0002-0.2 U/100 μL, up to 72 hours, pH 10, 37° C.", "value": "≤ 21", "unit": "%"}]}]}
